Legend:
[1] = system: dermal fibroblasts; assay: Fibrosis inhibition evaluation 1: cell morphology observation of dermal fibroblasts; assay type: cell-based, mice; conditions: dermal fibroblasts cultured 48 hours with TGFβ1
[2] = system: α-SMA expression induced by TGFβ1 in dermal fibroblasts; assay: Fibrosis inhibition evaluation 1: western blotting of α-SMA in dermal fibroblasts; assay type: cell-based, mice; conditions: compound 011 0.1, 1, 10 μM (especially 10 μM); Pyr 2 10 μM; TGFβ1 10 ng/ml, 48 hours
Method: The expression of α-smooth muscle actin (α-SMA) in fibroblasts was evaluated by western blotting. Dermal fibroblasts were isolated from 1 to 3-day-old mice, and 2.5×10^5 cells were seeded in a 12-well plate. After 24 hours, the medium was replaced with a medium free of fetal bovine serum, and the cells were cultured for another 24 hours. Thereafter, 10 ng/ml of transforming growth factor β1 (TGFβ1) was added, and the cells were cultured for 48 hours. At the same time as TGFβ1 was added, a test compound (compound 011) of a predetermined concentration (0.1 μM, 1 μM, 10 μM) and 10 μM of Pyr 2 or DMSO (solvent control) were also added. […] The cultured cells were dissolved in a lysis buffer (140 mM NaCl, 20 mM Tris-HCl pH 7.8, 1% Triton-X100, 0.05% sodium deoxycholate, 0.1% SDS, 2 mM EDTA, proteinase inhibitor cocktail), and separated by SDS-PAGE, followed by detecting α-SMA using anti-α-SMA antibody (Sigma) as the primary antibody and anti-mouse IgG antibody (cell signaling) fused with horse radish peroxidase as the secondary antibody.

[3] = target: T1, TRPC3 channel (Homo sapiens, UniProt Q13507); assay: Calcium assay using HEK293 cells transiently expressing TRPC3 channel, carbachol activation (Fura-2); assay type: cell-based
T1 construct: expressed in transfected cells; host or cells: HEK293
T1 sequence (Q13507 1-921): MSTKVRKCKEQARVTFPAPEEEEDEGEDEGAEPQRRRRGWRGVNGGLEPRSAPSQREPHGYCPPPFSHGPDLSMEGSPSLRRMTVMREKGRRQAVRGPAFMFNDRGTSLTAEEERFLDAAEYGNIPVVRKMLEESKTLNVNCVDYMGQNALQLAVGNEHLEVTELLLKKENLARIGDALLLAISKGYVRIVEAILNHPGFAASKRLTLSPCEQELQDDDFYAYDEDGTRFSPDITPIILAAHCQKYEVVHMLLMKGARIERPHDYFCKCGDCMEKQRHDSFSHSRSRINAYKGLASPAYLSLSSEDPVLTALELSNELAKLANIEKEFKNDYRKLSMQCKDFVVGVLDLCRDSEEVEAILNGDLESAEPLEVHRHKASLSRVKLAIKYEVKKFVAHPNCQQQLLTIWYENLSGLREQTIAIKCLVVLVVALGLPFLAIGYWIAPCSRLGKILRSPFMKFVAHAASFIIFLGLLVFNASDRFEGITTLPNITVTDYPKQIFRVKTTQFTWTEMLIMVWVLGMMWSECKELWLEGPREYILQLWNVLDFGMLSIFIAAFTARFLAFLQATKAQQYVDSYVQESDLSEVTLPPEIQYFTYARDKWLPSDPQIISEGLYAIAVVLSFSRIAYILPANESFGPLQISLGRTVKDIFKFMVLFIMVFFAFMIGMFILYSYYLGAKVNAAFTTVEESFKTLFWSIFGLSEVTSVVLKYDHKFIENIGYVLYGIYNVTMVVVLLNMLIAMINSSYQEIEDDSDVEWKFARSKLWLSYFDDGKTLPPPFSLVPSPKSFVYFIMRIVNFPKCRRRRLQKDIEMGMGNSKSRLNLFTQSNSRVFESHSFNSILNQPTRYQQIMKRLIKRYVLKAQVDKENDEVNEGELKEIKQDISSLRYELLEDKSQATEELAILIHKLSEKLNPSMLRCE
Method: A TRPC6 gene was introduced into HEK293 cells (cells derived from human fetal kidney) by lipofection, and the TRPC6 channel was expressed on the cell membrane. Specifically, the plasmid DNA of TRPC6 (pCI-neo; Promega Corporation) was introduced into HEK293 cells using a lipofection reagent, and then cultured at 37° C. for 24 to 48 hours to express the TRPC6 channel on the cell membrane. In the same manner, HEK293 cells into which the TRPC3 gene was introduced were cultured, and the TRPC3 channel was expressed on the cell membrane.
The cultured cells were peeled off with trypsin and seeded on a cover glass again, followed by culturing the cells at 37° C. for 3 hours again. A Fura-2 AM calcium indicator was added to the medium, and the cells were cultured at 37° C. for 30 minutes to allow the cells to incorporate the indicator. For the extracellular solution, a Ca^2+-containing solution and a Ca^2+-free solution were prepared. • Ca^2+-containing solution: 2 mM CaCl2, 132 mM NaCl, 4 mM KCl, 1 mM MgCl2, 5 mM glucose, 5 mM HEPES (pH 7.4) • Ca^2+-free solution: 132 mM NaCl, 4 mM KCl, 1 mM MgCl2, 5 mM glucose, 5 mM HEPES (pH 7.4) […]

O=C(O)c1cnc(N2CCN(c3noc4cccc(C(F)(F)F)c34)CC2)c(Cl)c1 [Compound 011, 5-chloro-6-(4-(4-(trifluoromethyl)benzo[d]isoxazol-3-yl)piperazin-1-yl) nicotinic acid] was tested, and the “cell morphology / cell damage by microscopic observation” value [1] was “no change in cell morphology and no cell damage”, the “expression of α-SMA induced by TGFβ1 (western blotting)” value [2] was “potently inhibited the expression of α-SMA induced by TGFβ1” and the “Ca2+ concentration in the cells reached after addition of carbachol” value ([3]; TRPC3, FIG. 2, from about 100 nM, control (DMSO) about 350 nM) was “about 180 nM”. It also gave an IC50 ([3]; TRPC3-expressing HEK293 cells, carbachol 100 μM, from concentration-response curves, read-out: IC50 for inhibition of the TRPC3 channel) of 700 nM.
